Earlier results, collected in patent publication US20190175610A1 (priority 2017, published 2019).

Conditions: athletes, during exercise after oral supplementation

SMILES: C[N+](C)(C)C[C@H](O)CC(=O)[O-] [L-carnitine, γ-trimethylamino-β-hydroxybutyrate]
- benefit on fatty acid metabolism: no benefit
